Measurements reported in the supplement of paper PMC8671470.
± gives the standard deviation of the averaged measurements.

Tests used:
Settings in all cases: 72 h
MV4-11 [1] = test system: MV4-11
Outline: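 Fifteen myeloid leukaemia cell lines were seeded in RPMI 1640 at densities titrated to the linear growth range and placed in 384-well plates with acoustically pre-printed compounds at five tenfold doses from 1 to 10,000 nM, in duplicate. After 72 h at 37 °C with 5% CO2, luminescent ATP viability was normalised to vehicle and to a positive control at 10 µM, and curves were fitted with a four-parameter log-logistic model. The IC50 was obtained from these fits.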

HL-60 [2] = test: cell viability (% survival relative to DMSO control); higher = less cytotoxic
Outline: (§1)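 Area under the curve, where listed, was derived from four-parameter log-logistic fits with drc and PharmacoGx. These fits used CellTiter-Glo viability from HL-60 cells in RPMI 1640 with 10% FBS, normalised to DMSO wells and wells holding 10 μM proteasome inhibitor. The full library was rescreened on 384-well plates in duplicate at five tenfold concentrations, 1–10,000 nM, with DMSO or 100 nM of one of three metabolic inhibitors, for 72 h at 37 °C, 5% CO2.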

BV-173 = test: cell viability (% survival relative to DMSO control, bortezomib = 0%); higher = less cytotoxic
Outline: (§2)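 Seeding density for each of the 10 AML and 5 CML cell lines was titrated to the linear growth range. Cells went into 384-well plates pre-printed in duplicate with compounds at 1, 10, 100, 1000 or 10000 nM and were held for 72 h at 37 °C with 5% CO2. CellTiter-Glo luminescence then provided the readout. Percent survival is expressed relative to vehicle at 100% and a 10 µM positive control at 0%, averaged over duplicates.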

HEL = test: as above
Outline: as §2

HL-60 [3] = test: as above
Outline: as §2

K-562 = test: as above
Outline: as §2

KCL-22 = test: as above
Outline: as §2

KG-1 = test: as above
Outline: as §2

KU-812 = test: as above
Outline: as §2

LAMA-84 = test: as above
Outline: as §2

ML-2 = test: as above
Outline: as §2

MOLM-13 = test: as above
Outline: as §2

MV4-11 [4] = test: as above
Outline: as §2

Mono-Mac-6 = test: as above
Outline: as §2

NOMO-1 = test: as above
Outline: as §2

SHI-1 = test: as above
Outline: as §2

THP-1 = test: as above
Outline: as §2

HL-60 [5] = test: area under dose-response curve (viability, 1 nM-10 uM) (fraction (0-1)); higher = more sensitive
Outline: as §1

CC(C)c1ccc2c(c1)c(SC(C)(C)C)c(CC(C)(C)C(=O)O)n2Cc1ccc(Cl)cc1 [MK-886]
IC50 (cell viability) (MV4-11 [1]): > 10 µM
cell viability (HL-60 [2]; 0.001 µM, co-treatment: AZD3965 100 nM): 105 ± 4.8%
cell viability (HL-60 [2]; 0.001 µM, co-treatment: DMSO vehicle): 103 ± 0.78%
cell viability (HL-60 [2]; 0.001 µM, co-treatment: GSK2194069 100 nM): 104 ± 2.2%
cell viability (HL-60 [2]; 0.001 µM, co-treatment: pictilisib 100 nM): 105 ± 12%
cell viability (HL-60 [2]; 0.01 µM, co-treatment: AZD3965 100 nM): 95.8 ± 12%
cell viability (HL-60 [2]; 0.01 µM, co-treatment: DMSO vehicle): 99.9 ± 1.5%
cell viability (HL-60 [2]; 0.01 µM, co-treatment: GSK2194069 100 nM): 98.8 ± 5.2%
cell viability (HL-60 [2]; 0.01 µM, co-treatment: pictilisib 100 nM): 98.1 ± 1.9%
cell viability (HL-60 [2]; 0.1 µM, co-treatment: AZD3965 100 nM): 108 ± 7.9%
cell viability (HL-60 [2]; 0.1 µM, co-treatment: DMSO vehicle): 104.5 ± 0.84%
cell viability (HL-60 [2]; 0.1 µM, co-treatment: GSK2194069 100 nM): 105 ± 13%
cell viability (HL-60 [2]; 0.1 µM, co-treatment: pictilisib 100 nM): 109 ± 11%
cell viability (HL-60 [2]; 1 µM, co-treatment: AZD3965 100 nM): 99.8 ± 2%
cell viability (HL-60 [2]; 1 µM, co-treatment: DMSO vehicle): 107 ± 2.3%
cell viability (HL-60 [2]; 1 µM, co-treatment: GSK2194069 100 nM): 97.5 ± 1.7%
cell viability (HL-60 [2]; 1 µM, co-treatment: pictilisib 100 nM): 98.9 ± 5.2%
cell viability (HL-60 [2]; 10 µM, co-treatment: AZD3965 100 nM): 102 ± 3.9%
cell viability (HL-60 [2]; 10 µM, co-treatment: DMSO vehicle): 109.9 ± 1%
cell viability (HL-60 [2]; 10 µM, co-treatment: GSK2194069 100 nM): 94.4 ± 7.3%
cell viability (HL-60 [2]; 10 µM, co-treatment: pictilisib 100 nM): 108 ± 2.2%
cell viability (BV-173; 1 nM): 121%
cell viability (BV-173; 10 nM): 89.6%
cell viability (BV-173; 100 nM): 114%
cell viability (BV-173; 1000 nM): 103%
cell viability (BV-173; 10000 nM): 94.9%
cell viability (HEL; 1 nM): 110%
cell viability (HEL; 10 nM): 112%
cell viability (HEL; 100 nM): 99.2%
cell viability (HEL; 1000 nM): 95.3%
cell viability (HEL; 10000 nM): 82.7%
cell viability (HL-60 [3]; 1 nM): 108%
cell viability (HL-60 [3]; 10 nM): 103%
cell viability (HL-60 [3]; 100 nM): 94.8%
cell viability (HL-60 [3]; 1000 nM): 93.7%
cell viability (HL-60 [3]; 10000 nM): 124%
cell viability (K-562; 1 nM): 109%
cell viability (K-562; 10 nM): 97%
cell viability (K-562; 100 nM): 101%
cell viability (K-562; 1000 nM): 100%
cell viability (K-562; 10000 nM): 106%
cell viability (KCL-22; 1 nM): 108%
cell viability (KCL-22; 10 nM): 110%
cell viability (KCL-22; 100 nM): 105%
cell viability (KCL-22; 1000 nM): 89.7%
cell viability (KCL-22; 10000 nM): 39.1%
cell viability (KG-1; 1 nM): 111%
cell viability (KG-1; 10 nM): 102%
cell viability (KG-1; 100 nM): 89.4%
cell viability (KG-1; 1000 nM): 93.8%
cell viability (KG-1; 10000 nM): 91.5%
cell viability (KU-812; 1 nM): 109%
cell viability (KU-812; 10 nM): 97.3%
cell viability (KU-812; 100 nM): 94.1%
cell viability (KU-812; 1000 nM): 94.9%
cell viability (KU-812; 10000 nM): 91.5%
cell viability (LAMA-84; 1 nM): 96.6%
cell viability (LAMA-84; 10 nM): 101%
cell viability (LAMA-84; 100 nM): 97.2%
cell viability (LAMA-84; 1000 nM): 100%
cell viability (LAMA-84; 10000 nM): 115%
cell viability (ML-2; 1 nM): 132%
cell viability (ML-2; 10 nM): 107%
cell viability (ML-2; 100 nM): 95.3%
cell viability (ML-2; 1000 nM): 95.8%
cell viability (ML-2; 10000 nM): 67.8%
cell viability (MOLM-13; 1 nM): 89%
cell viability (MOLM-13; 10 nM): 103%
cell viability (MOLM-13; 100 nM): 88.9%
cell viability (MOLM-13; 1000 nM): 85.3%
cell viability (MOLM-13; 10000 nM): 88.4%
cell viability (MV4-11 [4]; 1 nM): 107%
cell viability (MV4-11 [4]; 10 nM): 109%
cell viability (MV4-11 [4]; 100 nM): 96.9%
cell viability (MV4-11 [4]; 1000 nM): 94.5%
cell viability (MV4-11 [4]; 10000 nM): 96.5%
cell viability (Mono-Mac-6; 1 nM): 111%
cell viability (Mono-Mac-6; 10 nM): 109%
cell viability (Mono-Mac-6; 100 nM): 91.5%
cell viability (Mono-Mac-6; 1000 nM): 101%
cell viability (Mono-Mac-6; 10000 nM): 108%
cell viability (NOMO-1; 1 nM): 120%
cell viability (NOMO-1; 10 nM): 110%
cell viability (NOMO-1; 100 nM): 106%
cell viability (NOMO-1; 1000 nM): 107%
cell viability (NOMO-1; 10000 nM): 97.5%
cell viability (SHI-1; 1 nM): 108%
cell viability (SHI-1; 10 nM): 110%
cell viability (SHI-1; 100 nM): 104%
cell viability (SHI-1; 1000 nM): 93.2%
cell viability (SHI-1; 10000 nM): 98.3%
cell viability (THP-1; 1 nM): 96.6%
cell viability (THP-1; 10 nM): 101%
cell viability (THP-1; 100 nM): 98.2%
cell viability (THP-1; 1000 nM): 96.8%
cell viability (THP-1; 10000 nM): 108%
area under dose-response curve (HL-60 [5]; co-treatment: AZD3965 100 nM): < 0.0301
area under dose-response curve (HL-60 [5]; co-treatment: DMSO vehicle): < 0.0301
area under dose-response curve (HL-60 [5]; co-treatment: GSK2194069 100 nM): < 0.0301
area under dose-response curve (HL-60 [5]; co-treatment: pictilisib 100 nM): < 0.0301
